Tests used:
[1] = biological target: angiotensin II mesenteric artery receptor; assay: In vitro angiotensin II mesenteric artery receptor binding assay; conditions: test 1); 125I-Ang II 0.2 nM, rat mesenteric artery membrane fraction, 22° C., 90 min
Method: 1) In vitro angiotensin II mesenteric artery receptor binding assay
According to the method (1) by Gunther et at., a membrane fraction was prepared from mesenteric artery of a male rat, 50 μg protein equivalent thereof and 0.2 nM ^125 I-Ang II as well as various concentrations of test compounds were incubated at 22° C. for 90 min. in 200 μl reaction volume of incubation buffer (50 mM Tris-HCl, 120 mM NaCl, 5 mM MgCl2, 0.25% bovine serum albumin, pH7.2). This was cooled, and the reaction was stopped by addition of ice-cooled phosphate buffer (10 mM phosphate, 140 mM NaCl, pH7.4, hereinafter referred to as PBS), and then the reaction solution was filtered through a glass fiber filter (Whatman CF/B), the filter was washed, dried, and then the radioactivity of captured ^125 I-angiotensin II which bound to the receptor was measured by γ-counter. Non-specific binding mount was obtained from the reaction in the presence of 1 μM of unlabeled angiotensin II. The test compound was tested at the concentration of 0.01 to 1 μM, and those that inhibited more than 50% of total specific binding mount at 1 μM was determined as an active compound, and 50% inhibiting concentration (IC50) was obtained [see Gunther, S., Gimbrone, M. A. and Alexander, R. W., Circ. Res., 17:278-286, 1980].

[2] = tested on: angiotensin II constriction in isolated rabbit thoracic aorta; assay: Antagonism to angiotensin II constriction in an isolated rabbit thoracic aorta; assay type: cell-based; conditions: test 3); 10^-6 M test compound, 20 min; pA2 = -logKB
Method: 3) Antagonism to angiotensin II constriction in an isolated rabbit thoracic aorta
A rectangular strip-like sample of thoracic aorta isolated from an anethetized rabbit was prepared, and this was suspended at 2.0 g of loaded tension in a Magnus tube filled with Krebs-Henseleitoid nutrition solution which was well aerated with 95% O2 -5% CO2, and the constriction tension was measured using an isometric transducer. After the tension of the sample at rest became stable, accumulative administration of angiotensin II was carried out to obtain a concentration-action curve. Thereafter, the sample was washed with the same nutrition solution, and then 10^-6 M test compound was treated for 20 min. to obtain again a concentration-action curve of angiotertsin II. The results were obtained as followed: generated maximum tension at the first accumulative administration of angiotensin II was regarded as 100%, and the 50% effective concentration (ED50) was obtained in the presence or absence of the test compound, and pA2 value was calculated according to the following equations:
pA2 =-logKB KB =C/{(A'/A)-1}
C: concentration of the test compound (M)
A': ED50 in the presence of test compound (M)
A:ED50 in the absence of the test compound (M)

[3] = tested on: blood pressure increasing by angiotensin II; assay: Antagonism to blood pressure increasing by angiotensin II in a spine destroyed rat; assay type: in vivo, Wistar rat; conditions: Rattus norvegicus; test 4); intravenous; 3 μg/kg angiotensin II i.v.; inhibition of blood pressure increase
Source text: 4)Antagonism to blood pressure increasing by angiotensin II in a spine destroyed rat
Wistar rat anesthetized with pentobarbital was fixed at dorsal position, and a cannula for measuring blood pressure was inserted into sinister arteria carotis communis, and a cannula for administration of the test compound into dexter external jugular vein and a cannula for administration of angiotensin II into sinister external jugular vein, arebilateral nervous vagus was cut, and artificial respiration was carried out. A thin bar made of metal was stabbed into spinal column through sininster orbita to destroy spine. Blood pressure was recorded on polygraph via pressure transducer from an arterial cannula. After blood pressure was stable for more than 30 min., 3μg/kg of angiotensin II was administered intravenously four times every 15 min., and every 5 min. before the administration of angiotensin II from the second admininstration onward, a solvent, a lower dose of the test compound, and a higher dose of the test compound were admininstered intravenously in this order to observe the blood pressure increasing response by angiotensin II. ED50 values were calculated from the inhibiting rate when the first blood pressure increase by angiotensin II was regarded as 100%.

[4] = biological target: adrenal cortex angiotensin II receptor; assay: In vitro adrenal cortex angiotensin II receptor binding assay; conditions: test 2); membrane fraction from adrenal cortex of male rat
Method: 2) In vitro adrenal cortex angiotensin II receptor binding assay
According to the method by Capponi et at. (1), angiotensin II receptor binding assay was carried out by preparing a membrane fraction from an adrenal cortex of a male rat and using this as a receptor material in the same manner as in the above-described pharmacological test 1) [see Capponi, A. M. and Catt, K., J. Biol. Chem. 254:5120-5127(1979)].

Row | Compound | IC50 [1] [nM] | pA2 [2] | ED50 [3] [mg/kg] | IC50 [4] [nM]
1 | CCCCc1nc2c(n1Cc1ccc(-c3ccccc3C(=O)O)cc1)C(=O)c1ccccc1C2=O [Compound No. 1, 1-[(2'-Carboxybiphenyl-4-yl)methyl]-2-n-butyl-1H-naphthimidazol-4,9-dione] | 610 | 6.64 | 22.6 | 540
2 | CCCCc1nc2c(n1Cc1ccc(-c3ccccc3C(=O)OC(C)(C)C)cc1)C(=O)c1ccccc1C2=O [Compound No. 2, 1-[(2'-t-Butoxycarbonylbiphenyl-4-yl)methyl]-2-n-butyl-1H-naphthimidazol-4,9-dione] | 50 | 7.60 | – | 48
